From US4353919A, “Analgesic and antipyretic pharmaceutical compositions containing a benzothiazol-2(3H)-one” (Dr. Karl Thomae Gesellschaft mit beschrankter Haftung, priority 1980, dated 1982)

Tests used:
Format in all cases: in vivo
[1] = tested on: inflammation pain of the rat; assay: Effect on the inflammation pain of the rat (Randall-Selitto, yeast-injected paw); details: male Chbb:THOM-rats, oral (esophageal tube), dose raising pain threshold by 50% vs controls
Protocol: The test arrangement corresponded to that indicated by RANDALL-SELITTO [Arch. Int. Pharmacodyn. 111, 409 (1957)]. Male Chbb:THOM-rats having body weights of from 100 to 130 grams received a subplantar injection of 0.1 ml of a 5% suspension of yeast cells in 5.55% glucose solution in a rear paw. At 11/2 and 21/4 hours, respectively, after injection of the phlogistic, the animals received various doses of the test substance as a trituration in 1% methyl cellulose (1 ml/100 g of animal) through an esophageal tube. Control animals received corresponding volumes of the vehicle.
Ninety and forty-five minutes, respectively, after application of the test substance (that is, three hours after the subplantar injection of the yeast suspension), the threshold pain was determined in the rat in terms of the […] of bearing pressure on a paw, based on the weight of the animals.
From the pain threshold, measured according to the different doses of the test substance, and with the linear regression analysis according to LINDER [Statistische Methoden, 4th ed., pp. 148-162, Birkhauser, Basel, 1964], and ED50 dose with the confidence limits according to FIELLER [Quart. J. Pharm. Pharmacol., 17, 117 (1944)] was determined. The ED50 dose is one in which the pain threshold rises by 50%, as compared to the controls.

[2] = tested on: body temperature of the rat; assay: Effect on the body temperature of the rat (antipyretic activity); details: Chbb:THOM-rats, oral (esophageal tube), dose decreasing rectal body temperature by 1.5° C.
Protocol: The temperature-lowering activity, i.e. antipyretic activity, was tested by the observation of the temperature curve given by rectally measured body temperatures of partially immobilized Chbb:THOM-rats having body weights of between 125 and 150 grams. The body temperatures were measured by thermocouples inserted into rectums. The test substances were administered as a trituration in a 1% methyl cellulose in portions of 1.0 ml/100 gm of animal using an esophageal tube.
From the values for the average maximum decline of temperature, which were gained after the administration of the different doses of the test substance, and after a linear regression analysis according to LINDER, an ED-1.5° C. was calculated with the confidence limits according to FIELLER as the dose which decreases the body temperature by 1.5° C.

Acute toxicity in mice = details: mouse, in vivo; Chbb:NMRI (SPF)-mice of both sexes, oral (esophageal tube), deaths within 14 days
Protocol: (§1) The acute toxicity was determined in Chbb:NMRI (SPF)-mice of both sexes, having an average body weight of 20 gm. The test compounds were administered as a trituration in 1% methyl cellulose (0.5 ml/10 gm of animal) by means of an esophageal tube. The calculation of the LD50 values was effected according to the method of LITCHFIELD and WILCOXON [J. Pharmacol. Exp. Ther. 96, 99 (1949)], based on the percentage of animals which died within 14 days after administration of different doses.

heat pain of the mouse = assay: Effect on the heat sensitivity of the mouse (hot plate, 52° C.); details: male Chbb:NMRI (SPF)-mice, oral (esophageal tube), dose increasing time of reaction by 100%
Protocol: The test performed according to a modification of the method described by CHEN and BECKMAN [Science, 113, 631 (1951)] in male Chbb:NMRI (SPF)-mice with an average weight of 20 grams.
The test substances were administered as trituration in 1% methyl cellulose (0.1 ml/10 gm of mouse) by means of an esophageal tube. Before treatment with the test substance, the animals were twice put on the hot plate at an interval of 30 minutes, whereby their individual times of reaction were measured. After treatment with a test substance, the times of reaction of the animals were again measured in an interval of 30 minutes.
From the average maximum increase of the time of reaction obtained after treatment with different doses, and after linear regression analysis according to LINDER, an ED100 dose with the confidence limits according to FIELLER was calculated. The ED100 dose is one which increased the time of reaction by 100%.

mice = assay: Acute toxicity in mice; details: oral, mice, 14 days
Protocol: as §1

[3] = 0.75 h, After Forty-five Minutes

## COc1ccc2sc(=O)[nH]c2c1 [A, 5-methoxy-benzothiazol-2(3H)-one]
[1]; [3]
  ED50: 90 mg/kg
[1]; 1.5 h, After Ninety Minutes
  ED50: 150 mg/kg
[2]
  ED (-1.5 C): 58 mg/kg
Acute toxicity in mice
  LD50 at 336 h: 1600 mg/kg
Heat pain of the mouse
  ED100: 218 mg/kg

## O=c1[nH]c2ccc(F)cc2s1 [B, 6-fluoro-benzothiazol-2(3H)-one]
[1]; [3]
  ED50: 121 mg/kg
[1]; 1.5 h, After Ninety Minutes
  ED50: 76 mg/kg
[2]
  ED (-1.5 C): 83 mg/kg
Acute toxicity in mice
  LD50 at 336 h: 1650 mg/kg
Heat pain of the mouse
  ED100: 165 mg/kg

## O=c1[nH]c2cccc(Cl)c2s1 [C, 7-chloro-benzothiazol-2(3H)-one]
[1]; [3]
  ED50: 106 mg/kg
[1]; 1.5 h, After Ninety Minutes
  ED50: 105 mg/kg
mice; 10000 mg/kg (footnote * of Table 5)
  survival of animals after administration of this dose: all 10 animals survived
Acute toxicity in mice
  LD50 at 336 h: 10000 mg/kg

## O=c1[nH]c2ccc(Cl)cc2s1 [D, 6-chloro-benzothiazol-2(3H)-one]
[1]; [3]
  ED50: 175 mg/kg
[1]; 1.5 h, After Ninety Minutes
  ED50: 129 mg/kg
[2]
  ED (-1.5 C): 103 mg/kg

## COc1cc2[nH]c(=O)sc2cc1OC [E, 5,6-dimethoxy-benzothiazol-2(3H)-one]
[1]; [3]
  ED50: 43 mg/kg
[1]; 1.5 h, After Ninety Minutes
  ED50: 40 mg/kg
[2]
  ED (-1.5 C): 29 mg/kg
Heat pain of the mouse
  ED100: 92 mg/kg

## Cc1cccc2sc(=O)[nH]c12 [F, 4-methyl-benzothiazol-2(3H)-one]
[1]; [3]
  ED50: 174 mg/kg
[1]; 1.5 h, After Ninety Minutes
  ED50: 202 mg/kg
[2]
  ED (-1.5 C): 118 mg/kg
mice; 8000 mg/kg (footnote ** of Table 5)
  animals died after administration of this dose: 4 out of 20 animals died
Acute toxicity in mice
  LD50 at 336 h: 8000 mg/kg
Heat pain of the mouse
  ED100: 113 mg/kg

## Cc1ccc2sc(=O)[nH]c2c1 [G, 5-methyl-benzothiazol-2(3H)-one]
[1]; [3]
  ED50: 103 mg/kg
[1]; 1.5 h, After Ninety Minutes
  ED50: 97 mg/kg
[2]
  ED (-1.5 C): 37 mg/kg
Acute toxicity in mice
  LD50 at 336 h: 2650 mg/kg
Heat pain of the mouse
  ED100: 178 mg/kg

## O=c1[nH]c2c(Cl)cccc2s1 [H, 4-chloro-benzothiazol-2(3H)-one]
[1]; [3]
  ED50: 24 mg/kg
[1]; 1.5 h, After Ninety Minutes
  ED50: 23 mg/kg
[2]
  ED (-1.5 C): 16 mg/kg
Heat pain of the mouse
  ED100: 125 mg/kg
